Test results: US20250115571A1, “OXOPIPERAZINE DERIVATIVES” (Inthera Bioscience AG, priority 2017, published 2025)

Tested on: SiHa human HPV16-positive cervical cancer cells
Experiment: Cell-derived xenograft mouse model for cervical cancer (SiHa CDX)
Type: in vivo
Conditions: for Tumor Size day 37: SiHa CDX, female BALB/c nude mice, Mean ± SEM; for T/C: day 37, tumor-to-control ratio (volume/volume)
Procedure: Female BALB/c nude mice (7-9 weeks of age) were injected with SiHa human HPV16-positive (Human Papillomavirus type 16) cervical cancer cells. The cells were inoculated subcutaneously into the left flank of 48 mice. When tumors reached a mean volume of approximately 111 mm^3, mice were randomly assigned to eight treatment groups of each six mice (TABLE 18). Body weights were measured three times weekly prior to the initiation of dosing and daily thereafter. Tumor burden was assessed by caliper measurement twice weekly. Dosing breaks were applied when tolerability issues arose (body weight loss>10%). The study was terminated four weeks post first dosing. The experiment was performed in the Crown Bioscience Ltd. (Beijing) testing facility (Ground Floor, Light Muller Building, Changping Sector of Zhongguancun Scientific Park, No. 21 Huoju Road, Changping District, Beijing, CHIN).

[1] = 1 mg/kg, BID, p.o., listed as Compound 258
[2] = 3 mg/kg, BID/QD (p.o. BID, QD from treatment day 7 on)

## CC(C)C[C@@H]1NCCN([C@@H](CC(C)C)C(=O)N2CCC3(C[C@@H]2C)OCC(CN2CCCC2)CO3)C1=O (stereo partly drawn) [Compound 258, (3S)-1-[(2S)-4-methyl-1-oxo-1-[(3s,6s,8S)-8-methyl-3-(pyrrolidin-1-ylmethyl)-1,5-dioxa-9-azaspiro[5.5]undec-an-9-yl]pentan-2-yl]-3-(2-methylpropyl)piper-azin-2-one (^≠), isomer Z]
[1]
  Tumor Size day 37: 296 ± 27 mm^3
  T/C: 31.6%
[2]
  Tumor Size day 37: 104 ± 30 mm^3
  T/C: 11.1%
